Assay results from ChEMBL document CHEMBL1909046, “DrugMatrix in vitro pharmacology data”.
pIC50, pKi: −log10 of the molar value.

Tests used:
[1] = DRUGMATRIX: Calcium Channel Type L, Dihydropyridine radioligand binding (ligand: [3H] Nitrendipine); type: cell membranes, Rattus norvegicus, Wistar, Cerebral cortex, Membrane; details: Not Active = under 50% inhibition at 10 µM
Adenosine receptor A3 = target: T1, Adenosine receptor A3 (Homo sapiens, UniProt P0DMS8); type: cell membranes, CHO-K1, Membrane; details: for pKi: read-out: Ki; for pIC50: read-out: IC50;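 on all read-outs here: radioligand binding assay with AB-MECA serving as the labeled ligand; in other assays of this panel Not Active means under 50% inhibition at 10 µM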
T1 sequence (P0DMS8 whole entry): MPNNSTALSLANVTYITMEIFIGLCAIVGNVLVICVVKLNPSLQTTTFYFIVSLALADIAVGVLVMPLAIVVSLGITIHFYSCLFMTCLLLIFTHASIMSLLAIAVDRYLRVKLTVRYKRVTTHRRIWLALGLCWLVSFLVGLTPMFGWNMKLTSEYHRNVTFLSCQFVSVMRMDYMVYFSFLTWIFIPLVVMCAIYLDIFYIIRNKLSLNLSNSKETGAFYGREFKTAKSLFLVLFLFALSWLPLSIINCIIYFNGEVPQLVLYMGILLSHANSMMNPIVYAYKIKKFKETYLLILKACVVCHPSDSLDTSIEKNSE

[2] = target: Mitogen-activated protein kinase 1 (Homo sapiens, UniProt P28482); assay: DRUGMATRIX: Protein Serine/Threonine Kinase, ERK2 enzyme inhibition (substrate: Myelin Basic Protein); parameters: species or system Escherichia coli; details: Not Active = under 50% inhibition at 10 µM
[3] = target: T2, Cysteinyl leukotriene receptor 1 (Homo sapiens, UniProt Q9Y271); type: cell membranes, Membrane; details: cho-k1; further: in other assays of this panel Not Active means under 50% inhibition at 10 µM
T2 sequence (Q9Y271 whole entry): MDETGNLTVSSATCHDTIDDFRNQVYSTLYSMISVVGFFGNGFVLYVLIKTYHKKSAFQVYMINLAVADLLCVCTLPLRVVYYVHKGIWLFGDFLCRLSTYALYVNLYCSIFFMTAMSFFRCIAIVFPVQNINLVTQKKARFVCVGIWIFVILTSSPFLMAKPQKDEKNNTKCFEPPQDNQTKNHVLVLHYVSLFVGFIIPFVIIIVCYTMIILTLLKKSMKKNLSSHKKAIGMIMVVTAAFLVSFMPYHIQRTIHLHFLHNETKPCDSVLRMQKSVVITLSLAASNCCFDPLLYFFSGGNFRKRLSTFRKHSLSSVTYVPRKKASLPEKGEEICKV

[4] = target: T3, Polyunsaturated fatty acid lipoxygenase ALOX15 (Oryctolagus cuniculus, UniProt P12530); assay: biochemical; type: tissue-based, Reticulocytes; details: reticulocytes;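 further: inhibition of 15-lipoxygenase enzyme activity measured with linoleic acid as the substrate; in other assays of this panel Not Active means under 50% inhibition at 10 µM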
T3 sequence (P12530 whole entry): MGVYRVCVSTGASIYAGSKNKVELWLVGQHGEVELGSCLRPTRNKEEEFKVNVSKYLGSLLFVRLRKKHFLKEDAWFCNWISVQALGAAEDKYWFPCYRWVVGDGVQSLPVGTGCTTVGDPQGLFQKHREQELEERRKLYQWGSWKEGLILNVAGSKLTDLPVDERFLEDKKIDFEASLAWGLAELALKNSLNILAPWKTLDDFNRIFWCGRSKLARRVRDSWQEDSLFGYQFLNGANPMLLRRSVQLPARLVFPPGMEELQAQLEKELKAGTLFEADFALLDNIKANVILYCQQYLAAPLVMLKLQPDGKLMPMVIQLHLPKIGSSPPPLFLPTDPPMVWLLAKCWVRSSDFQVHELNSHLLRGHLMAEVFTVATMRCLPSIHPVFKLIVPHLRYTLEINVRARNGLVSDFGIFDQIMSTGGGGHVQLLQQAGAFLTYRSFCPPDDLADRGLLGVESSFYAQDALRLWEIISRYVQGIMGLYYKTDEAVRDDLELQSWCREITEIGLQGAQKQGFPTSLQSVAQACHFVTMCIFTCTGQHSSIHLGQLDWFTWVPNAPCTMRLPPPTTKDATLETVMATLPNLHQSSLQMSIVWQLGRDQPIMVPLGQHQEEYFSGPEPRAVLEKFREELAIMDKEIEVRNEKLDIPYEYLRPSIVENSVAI

Progesterone receptor = target: T4, Progesterone receptor (Bos taurus, UniProt Q690N0); assay: DRUGMATRIX: Progesterone radioligand binding (ligand: [3H] R-5020); type: tissue-based, Uterus; details: Not Active = under 50% inhibition at 10 µM
T4 sequence (Q690N0 whole entry): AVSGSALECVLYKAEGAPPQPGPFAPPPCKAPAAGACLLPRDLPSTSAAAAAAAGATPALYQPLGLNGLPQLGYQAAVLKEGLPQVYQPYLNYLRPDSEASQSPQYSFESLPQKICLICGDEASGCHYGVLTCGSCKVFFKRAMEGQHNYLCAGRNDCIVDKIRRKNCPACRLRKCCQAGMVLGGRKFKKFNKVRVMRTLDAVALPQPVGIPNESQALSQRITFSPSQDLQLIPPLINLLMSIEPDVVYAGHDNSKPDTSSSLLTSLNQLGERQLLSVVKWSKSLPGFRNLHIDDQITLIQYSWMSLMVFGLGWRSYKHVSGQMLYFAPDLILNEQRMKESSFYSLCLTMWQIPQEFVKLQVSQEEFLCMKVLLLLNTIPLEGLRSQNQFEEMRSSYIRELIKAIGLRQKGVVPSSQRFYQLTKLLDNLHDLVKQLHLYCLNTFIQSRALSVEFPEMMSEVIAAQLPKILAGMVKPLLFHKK

[5] = target: C-C chemokine receptor type 2 (Homo sapiens, UniProt P41597); type: cell membranes, CHO-K1, Membrane; details: cho-k1; further: in other assays of this panel Not Active means under 50% inhibition at 10 µM
Chain of C-C chemokine receptor type 2 (P41597 whole entry): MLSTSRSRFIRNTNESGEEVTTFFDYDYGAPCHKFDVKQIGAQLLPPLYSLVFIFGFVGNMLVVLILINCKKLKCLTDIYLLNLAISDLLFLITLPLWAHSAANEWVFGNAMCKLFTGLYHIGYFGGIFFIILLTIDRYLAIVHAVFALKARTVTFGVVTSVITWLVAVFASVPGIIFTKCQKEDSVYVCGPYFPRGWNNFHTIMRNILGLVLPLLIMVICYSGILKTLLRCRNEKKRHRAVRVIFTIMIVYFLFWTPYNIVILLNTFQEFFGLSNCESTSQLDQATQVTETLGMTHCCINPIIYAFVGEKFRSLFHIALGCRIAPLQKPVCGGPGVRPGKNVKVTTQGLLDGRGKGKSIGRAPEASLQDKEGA

Chain of Mitogen-activated protein kinase 1 (P28482 whole entry): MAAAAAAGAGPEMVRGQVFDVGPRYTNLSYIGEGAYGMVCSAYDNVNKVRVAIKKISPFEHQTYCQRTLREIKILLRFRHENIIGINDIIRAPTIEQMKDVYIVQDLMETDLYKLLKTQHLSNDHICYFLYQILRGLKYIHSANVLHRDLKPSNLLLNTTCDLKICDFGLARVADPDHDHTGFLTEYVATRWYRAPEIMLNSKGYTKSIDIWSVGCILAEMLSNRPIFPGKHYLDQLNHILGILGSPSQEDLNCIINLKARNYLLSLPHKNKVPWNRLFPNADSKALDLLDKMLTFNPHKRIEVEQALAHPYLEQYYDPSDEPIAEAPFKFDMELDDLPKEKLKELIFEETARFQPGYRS

Molecule	IC50 [1]	Ki [1]	IC50 (Adenosine receptor A3; cho-k1)	IC50 [2]	IC50 [3]	IC50 [4]	IC50 (Progesterone receptor)	IC50 [5]	pKi (Adenosine receptor A3; cho-k1)	Ki [2]	Ki [3]	Ki [4]	Ki (Progesterone receptor)	Ki [5]	pIC50 (Progesterone receptor; read-out: IC50)	pKi (Progesterone receptor; read-out: Ki)	pIC50 (Adenosine receptor A3)	pKi (Adenosine receptor A3)	pIC50 ([2]; read-out: IC50)
CCS(=O)(=O)CCn1c([N+](=O)[O-])cnc1C [TINIDAZOLE]	Not Active	Not Active	Not Active	Not Active	Not Active	Not Active	Not Active	Not Active											
Nc1nc2c(c(=O)[nH]1)N(C=O)C(CNc1ccc(C(=O)N[C@@H](CCC(=O)O)C(=O)O)cc1)CN2 (stereo not given in full) [LEUCOVORIN]	Not Active	Not Active	Not Active		Not Active	Not Active	Not Active	Not Active											
CC(=O)O[C@H]1C[C@@H]2CC[C@@H]3[C@H](CC[C@@]4(C)[C@H]3C[C@H]([N+]3(C)CCCCC3)[C@@H]4OC(C)=O)[C@@]2(C)C[C@@H]1N1CCCCC1.[Br-] [VECURONIUM BROMIDE]	Not Active	Not Active	Not Active	Not Active	Not Active	Not Active	Not Active	Not Active											
C[C@@H](O)[C@H]1C(=O)N2C(C(=O)O)=C(S[C@@H]3CN[C@H](C(=O)N(C)C)C3)[C@H](C)[C@H]12 [MEROPENEM]	Not Active	Not Active	Not Active	Not Active	Not Active	Not Active	Not Active	Not Active											
Cc1cn([C@H]2C[C@H](N=[N+]=[N-])[C@@H](CO)O2)c(=O)[nH]c1=O [ZIDOVUDINE]	Not Active	Not Active	Not Active	Not Active	Not Active	Not Active	Not Active	Not Active											
COc1cc(N)nc2[nH]c(-c3ccc(F)cc3)c(-c3ccncc3)c12	Not Active	Not Active	Not Active	Not Active	Not Active	Not Active	Not Active	Not Active											
CN1C2CCCC1CC(NC(=O)c1nn(C)c3ccccc13)C2 (stereo not given) [GRANISETRON]			Not Active	Not Active	Not Active	Not Active	Not Active	Not Active											
THIMEROSAL	Not Active	Not Active		Not Active	Not Active	Not Active	Not Active	Not Active	5.72	Not Active	Not Active	Not Active	Not Active	Not Active					
C[C@]12CC[C@H]3[C@@H](CCC4=CC(=O)CC[C@@]43C)[C@@H]1CC[C@@H]2O [TESTOSTERONE]	Not Active	Not Active	Not Active	Not Active	Not Active	Not Active		Not Active							5.71	6.60			
CNS(=O)(=O)Cc1ccc2[nH]cc(CCN(C)C)c2c1	Not Active	Not Active	Not Active	Not Active	Not Active	Not Active	Not Active	Not Active											
CO[C@H]1C[C@@H]2CC[C@@H](C)[C@@](O)(O2)C(=O)C(=O)N2CCCC[C@H]2C(=O)O[C@H]([C@H](C)C[C@@H]2CC[C@@H](O)[C@H](OC)C2)CC(=O)[C@H](C)/C=C(\C)[C@@H](O)[C@@H](OC)C(=O)[C@H](C)C[C@H](C)/C=C/C=C/C=C/1C [SIROLIMUS]	Not Active	Not Active	Not Active	Not Active	Not Active	Not Active	Not Active	Not Active											
CC(C)OC(=O)C(C)(C)Oc1ccc(C(=O)c2ccc(Cl)cc2)cc1 [FENOFIBRATE]				Not Active	Not Active	Not Active	Not Active	Not Active									5.24	5.49	
CN(CCOc1ccc(CC2SC(=O)NC2=O)cc1)c1ccccn1 (stereo not given) [ROSIGLITAZONE]	Not Active	Not Active	Not Active	Not Active	Not Active	Not Active	Not Active	Not Active											
C=C(C)[C@H]1Cc2c(ccc3c2O[C@@H]2COc4cc(OC)c(OC)cc4[C@@H]2C3=O)O1 [ROTENONE]	Not Active	Not Active	Not Active	Not Active	Not Active	Not Active	Not Active	Not Active											
Nc1ccc(S(=O)(=O)Nc2nccs2)cc1 [SULFATHIAZOLE]	Not Active	Not Active	Not Active	Not Active	Not Active	Not Active	Not Active	Not Active											
OCCN1CCN(CCCN2c3ccccc3Sc3ccc(C(F)(F)F)cc32)CC1 [FLUPHENAZINE]				Not Active	Not Active	Not Active	Not Active	Not Active									4.92	5.17	
COc1ccc(CN2CCNCC2)c(OC)c1OC [TRIMETAZIDINE]	Not Active	Not Active	Not Active	Not Active	Not Active	Not Active	Not Active	Not Active											
CC[C@@H](CO)NC(=O)[C@@H]1C=C2c3cccc4c3c(cn4C)C[C@H]2N(C)C1 [METHYSERGIDE]			Not Active	Not Active	Not Active	Not Active	Not Active	Not Active											
COc1cc(C(=O)NS(=O)(=O)c2ccccc2C)ccc1Cc1cn(C)c2ccc(NC(=O)OC3CCCC3)cc12 [ZAFIRLUKAST]	Not Active	Not Active				Not Active	Not Active	Not Active									5.87	6.11	6.27
CC(=O)Nc1nnc(S(N)(=O)=O)s1 [ACETAZOLAMIDE]			Not Active	Not Active	Not Active	Not Active	Not Active	Not Active											
CCN(CC)CC#CCOC(=O)C(O)(c1ccccc1)C1CCCCC1 (stereo not given) [OXYBUTYNIN]			Not Active	Not Active	Not Active	Not Active	Not Active	Not Active											
O=c1[nH]c2ccccc2n1CCCN1CCC(n2c(=O)[nH]c3cc(Cl)ccc32)CC1 [DOMPERIDONE]			Not Active	Not Active	Not Active	Not Active	Not Active	Not Active											
O=c1n(CCCN2CCN(c3cccc(Cl)c3)CC2)nc2ccccn12 [TRAZODONE]			Not Active	Not Active	Not Active	Not Active	Not Active	Not Active											
